Results published in patent US9096500B2, “Acyl sulfonamide compounds” (Pfizer Limited, priority 2010, dated 2015).
Where a name gives a salt, the structure may show the parent alone.

Target: T1, Nav1.7 (or SCN9A) channel (Homo sapiens, UniProt Q15858)
T1 construct: expressed in transfected cells
Test: Nav1.7 (hSCN9A) electrophysiology assay, PatchXpress platform
Assay type: cell-based
Conditions: estimated IC50 from single point electrophysiology data, HEK cells stably expressing hSCN9A, held at V1/2 of inactivation, read-out: Nav1.7 EIC50
Experimental: The ability of the compounds of formula (I) to block the Nav1.7 (or SCN9A) channel were measured using the assay described below.
Human Embryonic Kidney (HEK) cells were transfected with an hSCN9A construct using lipofectamine reagent (Invitrogen), using standard techniques. Cells stably expressing the hSCN9A constructs were identified by their resistance to G-418 (400 μg/ml). Clones were screened for expression using the whole-cell voltage-clamp technique.
HEK cells stably transfected with hSCN9A were maintained in DMEM medium supplemented with 10% heat-inactivated fetal bovine serum and 400 μg/ml G-418 in an incubator at 37° C. with a humidified atmosphere of 10% CO2. For HTS, cells were harvested from flasks by trypsinization and replated in an appropriate multi-well plate (typically 96 or 384 wells/plate) such that confluence would be achieved within 24 hours of plating. For electrophysiological studies, cells were removed from the culture flask by brief trypsinization and re-plated at low density onto glass cover slips. Cells were typically used for electrophysiological experiments within 24 to 72 hours after plating.
Cover slips containing HEK cells expressing hSCN9A were placed in a bath on the stage of an inverted microscope and perfused (approximately 1 ml/minutes) with extracellular solution of the following composition: 138 mM NaCl, 2 mM CaCl2, 5.4 mM KCl, 1 mM MgCl2, 10 mM glucose, and 10 mM HEPES, pH 7.4, with NaOH. […] The osmolarity of the extracellular and intracellular solutions was 300 mOsm/kg and 295 mOsm/kg, respectively. All recordings were made at room temperature (22-24° C.) using AXOPATCH 200B amplifiers and PCLAMP software (Axon Instruments, Burlingame, Calif.).
hSCN9A currents in HEK cells were measured using the whole-cell configuration of the patch-clamp technique (Hamill et al., 1981). Uncompensated series resistance was typically 2 to 5 mega ohms and >85% series resistance compensation was routinely achieved. […] Current records were acquired at 20 to 50 KHz and filtered at 5 to 10 KHz.
HEK cells stably transfected with hSCN9A were viewed under Hoffman contrast optics and placed in front of an array of flow pipes emitting either control or compound-containing extracellular solutions. All compounds were dissolved in dimethyl sulfoxide to make 10 mM stock solutions, which were then diluted into extracellular solution to attain the final concentrations desired. […] The voltage-dependence of inactivation was determined by applying a series of depolarizing prepulses (8 sec long in 10 mV increments) from a negative holding potential. The voltage was then immediately stepped to 0 mV to assess the magnitude of the sodium current. Currents elicited at 0 mV were plotted as a function of prepulse potential to allow estimation of the voltage at which 50% of the channels were inactivated (midpoint of inactivation or V1/2). Compounds were tested for their ability to inhibit hSCN9A sodium channels by activating the channel with a 20 msec voltage step to 0 mV following an 8 second conditioning prepulse to the empirically determined V1/2. Compound effect (% inhibition) was determined by difference in current amplitude before and after application of test compounds. […] Inhibition values <20% and >80% were excluded from the calculation.
Electrophysiological assays were conducted with PatchXpress 7000 hardware and associated software (Molecular Devices Corp). All assay buffers and solutions were identical to those used in conventional whole-cell voltage clamp experiments described above. hSCN9A cells were grown as above to 50%-80% confluency and harvested by trypsinization. Trypsinized cells were washed and resuspended in extracellular buffer at a concentration of 1×10^6 cells/ml. The onboard liquid handling facility of the PatchXpress was used for dispensing cells and application of test compounds.

T1 sequence (Q15858 whole entry): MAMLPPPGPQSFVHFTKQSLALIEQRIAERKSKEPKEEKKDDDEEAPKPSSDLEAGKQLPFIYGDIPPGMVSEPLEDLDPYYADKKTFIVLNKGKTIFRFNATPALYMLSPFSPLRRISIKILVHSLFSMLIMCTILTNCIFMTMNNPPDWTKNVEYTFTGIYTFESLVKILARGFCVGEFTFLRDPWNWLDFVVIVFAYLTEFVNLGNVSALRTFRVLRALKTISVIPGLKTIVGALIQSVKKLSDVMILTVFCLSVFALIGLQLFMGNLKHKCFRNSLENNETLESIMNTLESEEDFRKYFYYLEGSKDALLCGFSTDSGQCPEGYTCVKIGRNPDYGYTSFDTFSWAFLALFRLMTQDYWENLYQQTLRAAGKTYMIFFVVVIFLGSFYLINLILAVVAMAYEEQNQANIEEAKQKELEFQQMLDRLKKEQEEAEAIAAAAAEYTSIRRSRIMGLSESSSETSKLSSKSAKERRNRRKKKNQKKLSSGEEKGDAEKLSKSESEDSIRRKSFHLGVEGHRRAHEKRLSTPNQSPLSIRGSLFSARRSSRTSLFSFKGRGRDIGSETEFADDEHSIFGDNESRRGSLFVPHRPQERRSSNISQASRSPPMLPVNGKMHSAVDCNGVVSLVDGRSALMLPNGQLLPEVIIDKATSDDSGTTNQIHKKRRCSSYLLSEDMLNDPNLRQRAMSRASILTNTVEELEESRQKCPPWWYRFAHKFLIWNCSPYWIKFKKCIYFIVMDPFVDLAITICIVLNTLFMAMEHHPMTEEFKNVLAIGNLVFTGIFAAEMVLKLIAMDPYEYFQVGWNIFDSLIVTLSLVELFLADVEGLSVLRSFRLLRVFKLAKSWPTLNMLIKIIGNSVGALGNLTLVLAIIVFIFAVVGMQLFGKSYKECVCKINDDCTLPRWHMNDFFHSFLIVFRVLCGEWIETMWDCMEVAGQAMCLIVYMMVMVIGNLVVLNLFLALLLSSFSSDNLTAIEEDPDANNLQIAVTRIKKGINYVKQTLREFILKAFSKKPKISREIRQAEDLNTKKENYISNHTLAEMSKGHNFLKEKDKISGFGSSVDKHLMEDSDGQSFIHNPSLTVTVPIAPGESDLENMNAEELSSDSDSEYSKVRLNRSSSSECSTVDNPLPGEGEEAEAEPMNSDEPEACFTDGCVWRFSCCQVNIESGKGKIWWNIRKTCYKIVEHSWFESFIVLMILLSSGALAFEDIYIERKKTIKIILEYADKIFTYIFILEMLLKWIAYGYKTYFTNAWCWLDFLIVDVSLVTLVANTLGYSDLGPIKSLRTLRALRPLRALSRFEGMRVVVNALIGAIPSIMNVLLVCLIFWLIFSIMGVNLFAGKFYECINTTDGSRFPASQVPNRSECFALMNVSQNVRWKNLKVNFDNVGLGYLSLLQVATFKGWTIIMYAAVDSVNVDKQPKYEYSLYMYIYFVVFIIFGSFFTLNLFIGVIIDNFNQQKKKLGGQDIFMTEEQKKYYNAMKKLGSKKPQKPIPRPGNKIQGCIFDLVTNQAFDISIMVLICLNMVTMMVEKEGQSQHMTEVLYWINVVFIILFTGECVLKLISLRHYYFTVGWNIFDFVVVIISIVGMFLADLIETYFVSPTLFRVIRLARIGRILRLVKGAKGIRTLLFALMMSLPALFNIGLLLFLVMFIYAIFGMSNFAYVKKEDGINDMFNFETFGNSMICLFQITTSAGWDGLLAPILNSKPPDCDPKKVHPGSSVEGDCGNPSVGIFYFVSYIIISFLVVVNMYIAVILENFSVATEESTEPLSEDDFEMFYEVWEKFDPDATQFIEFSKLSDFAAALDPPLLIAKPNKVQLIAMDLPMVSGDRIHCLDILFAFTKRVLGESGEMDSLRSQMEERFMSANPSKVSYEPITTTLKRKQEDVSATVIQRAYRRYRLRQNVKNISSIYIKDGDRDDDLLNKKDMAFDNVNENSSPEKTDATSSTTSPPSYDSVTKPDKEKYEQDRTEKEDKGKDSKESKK

| Compound | IC50 |
| --- | --- |
| CCc1ccc(OCc2ccc(C(=O)NS(C)(=O)=O)cc2OC)cc1 [Example 42, 4-[(4-Ethylphenoxy)methyl]-3-methoxy-N-(methylsulfonyl)benzamide diethylamine salt] | 250 nM |
| CCc1ccc(OCc2ccc(C(=O)NS(C)(=O)=O)c(C)c2)cc1 [Example 43, 4-[(4-Ethylphenoxy)methyl]-2-methyl-N-(methylsulfonyl)benzamide diethylamine salt] | 4200 nM |
| CS(=O)(=O)NC(=O)c1cc(F)c(COc2ccc(C#N)cc2Cl)cc1F [Example 44, 4-[(2-Chloro-4-cyanophenoxy)methyl]-2,5-difluoro-N-(methylsulfonyl)benzamide] | 2000 nM |
| CS(=O)(=O)NC(=O)c1cc(F)c(COc2ccc(Cl)c(C#N)c2)cc1F [Example 47, 4-[(4-Chloro-3-cyanophenoxy)methyl]-2,5-difluoro-N-(methylsulfonyl)benzamide] | 1400 nM |
| CS(=O)(=O)NC(=O)c1cc(F)c(COc2ccc(F)c(F)c2)cc1F [Example 48, 4-[(3,4-Difluorophenoxy)methyl]-2,5-difluoro-N-(methylsulfonyl)benzamide] | 1100 nM |
| CS(=O)(=O)NC(=O)c1cc(F)c(COc2ccc(Cl)c(F)c2)cc1F [Example 49, 4-[(4-Chloro-3-fluorophenoxy)methyl]-2,5-difluoro-N-(methylsulfonyl)benzamide] | 160 nM |
| CS(=O)(=O)NC(=O)c1cc(F)c(COc2ccc(Cl)c(OC(F)F)c2)cc1F [Example 50, 4-{[4-chloro-3-(difluoromethoxy)phenoxy]methyl}-2,5-difluoro-N-(methylsulfonyl)benzamide] | 220 nM |
| CS(=O)(=O)NC(=O)c1cc(F)c(COc2ccc(Cl)c(OC(F)(F)F)c2)cc1F [Example 51, 4-((4-Chloro-3-(trifluoromethoxy)phenoxy)methyl)-2,5-difluoro-N-(methylsulfonyl)benzamide] | 12 nM |
| CS(=O)(=O)NC(=O)c1cc(F)c(COc2ccc(OC(F)F)c(Cl)c2)cc1F [Example 52, 4-{[3-Chloro-4-(difluoromethoxy)phenoxy]methyl}-2,5-difluoro-N-(methylsulfonyl)benzamide] | 130 nM |
| CS(=O)(=O)NC(=O)c1cc(F)c(COc2ccc(OC(F)(F)F)c(Cl)c2)cc1F [Example 53, 4-((3-Chloro-4-(trifluoromethoxy)phenoxy)methyl)-2,5-difluoro-N-(methylsulfonyl)benzamide] | 13 nM |
| CS(=O)(=O)NC(=O)c1cc(F)c(COc2ccc(Cl)c(C(F)(F)F)c2)cc1F [Example 54, 4-((4-Chloro-3-(trifluoromethyl)phenoxy)methyl)-2,5-difluoro-N-(methylsulfonyl)benzamide] | 130 nM |
| CS(=O)(=O)NC(=O)c1cc(F)c(COc2cc(F)ccc2F)cc1F [Example 55, 4-[(2,5-Difluorophenoxy)methyl]-2,5-difluoro-N-(methylsulfonyl)benzamide] | 570 nM |
| CS(=O)(=O)NC(=O)c1cc(F)c(COc2cccc(OC(F)(F)F)c2)cc1F [Example 56, 4-[(3-Trifluoromethoxy)methyl]-2,5-difluoro-N-(methylsulfonyl)benzamide] | 88 nM |
| CS(=O)(=O)NC(=O)c1cc(F)c(COc2cc(F)c(F)cc2F)cc1F [Example 57, 2,5-Difluoro-N-(methylsulfonyl)-4-[(2,4,5-trifluorophenoxy)methyl]benzamide] | 1100 nM |
| CS(=O)(=O)NC(=O)c1cc(Cl)c(OCc2ccc(C(F)(F)F)c(Cl)c2)cc1F [Example 58, 5-Chloro-4-(3-chloro-4-(trifluoromethyl)benzyloxy)-2-fluoro-N-(methylsulfonyl)benzamide] | 21 nM |
| CS(=O)(=O)NC(=O)c1cc(Cl)c(OCc2ccc(Cl)c(C(F)(F)F)c2)cc1F [Example 59, 5-Chloro-4-(4-chloro-3-(trifluoromethyl)benzyloxy)-2-fluoro-N-(methylsulfonyl)benzamide] | 14 nM |
| CS(=O)(=O)NC(=O)c1cc(Cl)c(COc2ccc(OC(F)(F)F)c(Cl)c2)cc1F [Example 60, 5-Chloro-4-((3-chloro-4-(trifluoromethoxy)phenoxy)methyl)-2-fluoro-N-(methylsulfonyl)benzamide] | 29 nM |
| CS(=O)(=O)NC(=O)c1cc(Cl)c(COc2ccc(OC(F)F)c(Cl)c2)cc1F [Example 61, 5-Chloro-4-{[3-chloro-4-(difluoromethoxy)phenoxy]methyl}-2-fluoro-N-(methylsulfonyl)benzamide] | < 300 nM |
| CS(=O)(=O)NC(=O)c1cc(Cl)c(COc2ccc(Cl)c(OC(F)F)c2)cc1F [Example 62, 5-Chloro-4-{[4-chloro-3-(difluoromethoxy)phenoxy]methyl}-2-fluoro-N-(methylsulfonyl)benzamide] | < 3000 nM |
| CS(=O)(=O)NC(=O)c1cc(Cl)c(COc2ccc(Cl)c(OC(F)(F)F)c2)cc1F [Example 63, 5-Chloro-4-{[4-chloro-3-(trifluoromethoxy)phenoxy]methyl}-2-fluoro-N-(methylsulfonyl)benzamide] | 35 nM |
| COc1cc(Cl)ccc1OCc1ccc(C(=O)NS(C)(=O)=O)cc1 [Example 64, 4-[(4-Chloro-2-methoxyphenoxy)methyl]-N-(methylsulfonyl)benzamide] | > 3000 nM |
| CS(=O)(=O)NC(=O)c1ccc(COc2ccc(C(F)(F)F)c(Cl)c2)cc1 [Example 65, 4-{[3-Chloro-4-(trifluoromethyl)phenoxy]methyl}-N-(methylsulfonyl)benzamide] | 80 nM |
| COc1cc(COc2cc(F)c(C(=O)NS(C)(=O)=O)cc2F)ccc1Cl [Example 66, 4-(4-Chloro-3-methoxybenzyloxy)-2,5-difluoro-N-(methylsulfonyl)benzamide] | > 1000 nM |
| CS(=O)(=O)NC(=O)c1cc(F)c(OCc2ccc(Cl)c(C#N)c2)cc1F [Example 67, 4-(4-Chloro-3-cyanobenzyloxy)-2,5-difluoro-N-(methylsulfonyl)benzamide Diethylamine salt] | 9200 nM |
| COc1ccc(COc2cc(F)c(C(=O)NS(C)(=O)=O)cc2F)cc1Cl [Example 68, 4-(3-Chloro-4-methoxybenzyloxy)-2,5-difluoro-N-(methylsulfonyl)benzamide] | 9800 nM |
| CS(=O)(=O)NC(=O)c1ccc(COc2ccc(Cl)c(Cl)c2)c(C#N)c1 [Example 69, 5-Cyano-4-((3,4-dichlorophenoxy)methyl)-N-(methylsulfonyl)benzamide Diethylamine salt] | 240 nM |
| CS(=O)(=O)NC(=O)c1cc(F)c(OCc2ccc(Cl)c(C(F)(F)F)c2)cc1F [Example 70, 4-(4-Chloro-3-(trifluoromethyl)benzyloxy)-2,5-difluoro-N-(methylsulfonyl) benzamide] | 160 nM |
| COc1ccc(COc2cc(F)c(C(=O)NS(C)(=O)=O)cc2Cl)cc1 [Example 71, 5-chloro-2-fluoro-4-[(4-methoxybenzyl)oxy]-N-(methylsulfonyl)benzamide] | 3900 nM |
| CS(=O)(=O)NC(=O)c1ccc(OCc2ccc(Cl)cc2)c(Cl)c1 [Example 73, 3-chloro-4-[(4-chlorobenzyl)oxy]-N-(methylsulfonyl)benzamide] | 6400 nM |
| CS(=O)(=O)NC(=O)c1ccc(OCc2cccc(Cl)c2)c(C#N)c1 [Example 74, 4-[(3-chlorobenzyl)oxy]-3-cyano-N-(methylsulfonyl)benzamide] | 9700 nM |
